In PMC7178819, “6,7-Dimethoxy-2-phenethyl-1,2,3,4-tetrahydroisoquinoline amides and corresponding ester isosteres as multidrug resistance reversers” (Journal of Enzyme Inhibition and Medicinal Chemistry, 2020):
Structures can show the parent of a compound that is named as a salt.

Experiments:
P-gp [1] = biological target: T1, P-gp (Homo sapiens, UniProt P08183); assay: ATP cell depletion (ATPlite assay) in MDCK-MDR1 cells; format: cell-based; conditions: Yes/No
T1 construct: expressed in transfected cells; host or cells: MDCK-MDR1 (Madin-Darby Canine Kidney cells, gift of Prof. P. Borst, NKI-AVL)
Protocol: The MDCK-MDR1 cells were seeded into 96-well microplate in 100 µL of complete medium at a density 20,000 cells per well. The plate was incubated overnight (O/N) in a humidified atmosphere 5% CO2 at 37 °C. The medium was removed and 100 µL of complete medium either alone or containing different concentrations (ranging from 1 to 100 µM) of test compounds was added. The plate was incubated for 2 h in a humidified 5% CO2 atmosphere at 37 °C. 50 µL of mammalian cell lysis solution was added to all wells and the plate shacked for five minutes in an orbital shaker. 50 µL of substrate solution was added to all wells and the plate shacked for five minutes in an orbital shaker. The plate was dark adapted for ten minutes and the luminescence was measured.
(§1) The interaction potency between the designed compounds and P-gp was evaluated by measuring the transport inhibition of the pro-fluorescent probe Calcein-AM, that is a P-gp substrate, in a cell line overexpressing P-gp (MDCK-MDR1)[47]. The P-gp interacting profile was further investigated with two other assays: the Apparent Permeability (Papp) determination (BA/AB) in Caco-2 cell monolayer[48]^,[49], and the ATP cell depletion in the MDCK-MDR1 cell line[50]. Taking into account the results of the combined tests, an interacting compound can be classified as substrate or inhibitor. Papp determination measures the ratio between two fluxes: from the basolateral to apical compartments (BA, representative of passive diffusion) and from the apical to basolateral compartments (AB, representative of active transport). […] In the same manner, if (BA/AB) >2, the compound should probably be classified as a substrate. […] The selectivity of ligands 1–26 was evaluated by detecting their activity towards the other ABC transporters MRP1 and BCRP, by measuring the inhibition of the efflux of Calcein-AM (i.e., also a MRP1 substrate) in cells overexpressing MRP1 (MDCK-MRP1 cells), and the inhibition of the efflux of the fluorescent probe Hoechst 33342 (i.e. a BCRP substrate) in cells overexpressing BCRP (MDCK-BCRP cells), respectively.

[2] = Stability test in phosphate buffer solution (PBS); format: physicochemical; conditions: 1 µM, 37 °C, up to 120 min
Protocol: (§2) Each sample was prepared adding 10 µL of working solution 1 to 100 µL of tested matrix (PBS or human plasma) in micro centrifuge tubes. The obtained solutions correspond to 1 µM of analyte.
Each set of samples was incubated in triplicate at four different times, 0, 30, 60 and 120 min at 37 °C. Therefore, the degradation profile of each analyte was represented by a batch of 12 samples (4 incubation times × 3 replicates). After the incubation, the samples were added with 300 µL of ISTD solution and centrifuged (room temperature for 5 min at 10,000 rpm). The supernatants were transferred in auto sampler vials and dried under a gentle stream of nitrogen.
(§3) The dried samples were dissolved in 1.0 ml of 10 mM of formic acid in mQ water: acetonitrile 80:20 solution. The obtained sample solutions were analysed by LC-MS/MS methods described in Supplementary material.
Due to the presence of ester or amide groups in the structure of compounds 1–26, a study aimed to evaluate their susceptibility to spontaneous or enzymatic hydrolysis, was planned. For this purpose, a series of experiments were carried out, adding a known amount of analyte in both phosphate buffer solution (PBS) and in human plasma. The samples were analysed by LC-MS/MS method operating in Multiple Reaction Monitoring (MRM) mode[55]. […]

[3] = Apparent permeability (Papp) determination (BA/AB) in Caco-2 cell monolayer; format: in vitro ADME; conditions: human, Caco-2 monolayer
Protocol: Caco-2 cells were seeded onto a Millicell® assay system (Millipore), where a cell monolayer is set in between a filter cell and a receiver plate, at a density of 10 000 cells/well[46]. The culture medium was replaced every 48 h and the cells kept for 21 days in culture. The Trans Epithelial Electrical Resistance (TEER) of the monolayers was measured daily, before and after the experiment, using an epithelial volt-ohmmeter (Millicell®-ERS). Generally, TEER values greater than 1000 Ω for a 21 days culture, are considered optimal.
After 21 days of Caco-2 cell growth, the medium was removed from filter wells and from the receiver plate, which were filled with fresh HBSS buffer (Invitrogen). This procedure was repeated twice, and the plates were incubated at 37 °C for 30 min. After incubation time, the HBSS buffer was removed and drug solutions and reference compounds were added to the filter well at the concentration of 100 µM, while fresh HBSS was added to the receiver plate. The plates were incubated at 37 °C for 120 min. Afterwards, samples were removed from the apical (filter well) and basolateral (receiver plate) side of the monolayer to measure the permeability.
as §1

P-gp [4] = biological target: T1, P-gp; assay: Inhibition of Calcein-AM transport in MDCK-MDR1 cells; format: cell-based; conditions: Calcein-AM, MDCK-MDR1 cells; mean ± SEM of two experiments
Protocol: These experiments were carried out as previously described by Teodori et al. with minor modifications. Each cell line (30 000 cells per well) was seeded into black CulturePlate 96/wells plate with 100 µL medium and allowed to become confluent overnight. 100 µL of test compounds were solubilised in culture medium and added to monolayers, with final concentrations ranging from 1 nM to 100 µM. 96/Wells plate was incubated for 30 min in a humidified atmosphere 5% CO2 at 37 °C. Calcein-AM was added in 100 µL of Phosphate Buffered Saline (PBS) to yield a final concentration of 2.5 µM and plate was incubated for 30 min in a humidified atmosphere 5% CO2 at 37 °C. Each well was washed 3 times with ice cold PBS. Saline buffer was added to each well and the plate was read with Victor3 (PerkinElmer) at excitation and emission wavelengths of 485 and 535 nm, respectively. In these experimental conditions, Calcein cell accumulation in the absence and in the presence of tested compounds was evaluated and fluorescence basal level was estimated with untreated cells. In treated wells the increase of fluorescence with respect to basal level was measured. EC50 values were determined by fitting the fluorescence increase percentage versus log[dose].
The interaction potency between the designed compounds and P-gp was evaluated by measuring the transport inhibition of the pro-fluorescent probe Calcein-AM, that is a P-gp substrate, in a cell line overexpressing P-gp (MDCK-MDR1)[47]. The P-gp interacting profile was further investigated with two other assays: the Apparent Permeability (Papp) determination (BA/AB) in Caco-2 cell monolayer[48]^,[49], and the ATP cell depletion in the MDCK-MDR1 cell line[50]. […] Papp determination measures the ratio between two fluxes: from the basolateral to apical compartments (BA, representative of passive diffusion) and from the apical to basolateral compartments (AB, representative of active transport). […] In the same manner, if (BA/AB) >2, the compound should probably be classified as a substrate.

[5] = Stability test in human plasma (LC-MS/MS); format: in vitro ADME; conditions: 1 µM, 37 °C
Protocol: as §2
After the incubation, the samples were added with 300 µL of ISTD solution and centrifuged (room temperature for 5 min at 10,000 rpm). The supernatants were transferred in auto sampler vials and dried under a gentle stream of nitrogen.
as §3
For this purpose, a series of experiments were carried out, adding a known amount of analyte in both phosphate buffer solution (PBS) and in human plasma. The samples were analysed by LC-MS/MS method operating in Multiple Reaction Monitoring (MRM) mode[55].
The analyte concentration (1 µM) used during the stability tests is generally smaller than the corresponding Michaelis–Menten constant (KM); therefore, the enzymatic degradation rate is described by a first-order kinetic. Then, by plotting the natural logarithm of the quantitative data versus the incubation time, a linear function can be used and its slope represents the degradation rate (k).

MDCK-MDR1 cells = assay: Co-administration assay with doxorubicin (MTT), MDCK-MDR1 cells; format: cell-based, canine; conditions: 10 µM, MDCK cells overexpressing P-gp
Protocol: The co-administration assay with doxorubicin was performed in MDCK-MDR1, HT29, HT29/DX, A549 and A549/DX cells at 48 h. On day 1, 10,000 cells/well were seeded into 96-well plates in a volume of 100 µL of fresh medium. On day 2, the tested drug was added alone to the cells at different concentrations (ranging from 40 nM to 10 µM). On day 3, the medium was removed and the drug at the same concentrations was added alone and in co-administration with 10 µM doxorubicin to the cells. After the established incubation time with the tested drug, MTT (0.5 mg/mL) was added to each well, and after 3 − 4 h incubation at 37 °C, the supernatant was removed. The formazan crystals were solubilised using 100 µL of DMSO/EtOH (1:1), and the absorbance values at 570 and 630 nm were determined on the microplate reader HTX Synergy (Bio-Tek Instruments).

BCRP = biological target: T2, BCRP (Homo sapiens, UniProt Q9UNQ0); assay: Inhibition of Hoechst 33342 efflux in MDCK-BCRP cells; format: cell-based; conditions: Hoechst 33342, MDCK-BCRP cells; NA: not active
T2 construct: expressed in transfected cells; host or cells: MDCK-BCRP (Madin-Darby Canine Kidney cells, gift of Prof. P. Borst, NKI-AVL)
T2 sequence (Q9UNQ0 1-655): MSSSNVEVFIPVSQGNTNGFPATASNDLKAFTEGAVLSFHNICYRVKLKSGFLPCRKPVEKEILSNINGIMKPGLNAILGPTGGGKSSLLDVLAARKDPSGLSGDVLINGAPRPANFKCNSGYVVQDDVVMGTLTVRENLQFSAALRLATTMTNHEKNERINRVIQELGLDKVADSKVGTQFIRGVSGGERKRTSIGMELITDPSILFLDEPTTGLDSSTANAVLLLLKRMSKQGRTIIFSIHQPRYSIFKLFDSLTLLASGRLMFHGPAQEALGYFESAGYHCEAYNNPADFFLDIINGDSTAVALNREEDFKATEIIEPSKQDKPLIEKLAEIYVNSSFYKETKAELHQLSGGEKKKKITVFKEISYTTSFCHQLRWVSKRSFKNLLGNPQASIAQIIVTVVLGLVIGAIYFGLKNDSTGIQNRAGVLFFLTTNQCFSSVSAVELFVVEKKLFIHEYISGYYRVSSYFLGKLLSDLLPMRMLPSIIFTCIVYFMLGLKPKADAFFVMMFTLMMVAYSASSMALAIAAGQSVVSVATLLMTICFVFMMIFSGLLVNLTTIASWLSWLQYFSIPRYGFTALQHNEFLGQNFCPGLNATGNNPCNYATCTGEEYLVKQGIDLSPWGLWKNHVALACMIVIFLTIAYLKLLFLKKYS
Protocol: These experiments were carried out as described by Teodori et al.[34]. Each cell line (30 000 cells per well) was seeded into black CulturePlate 96/wells plate with 100 µL medium and allowed to become confluent overnight. 100 µL of test compounds were solubilised in culture medium and added to monolayers, with final concentrations ranging from 1 to 100 µM. 96/Wells plate was incubated for 30 min in a humidified atmosphere 5% CO2 at 37 °C. Hoechst 33342 was added in 100 µl of phosphate-buffered saline (PBS) to yield a final concentration of 8 µM and plate was incubated for 30 min in a humidified atmosphere 5% CO2 at 37 °C. The supernatants were drained, and the cells were fixed for 20 min under light protection using 100 µL per well of a 4% PFA solution. Each well was washed three times with ice cold PBS. Saline buffer was added to each well and the plate was read with Victor3 (PerkinElmer) at excitation and emission wavelengths of 340/35 nm and 485/20 nm, respectively. In these experimental conditions, Hoechst 33342 accumulation in the absence and in the presence of tested compounds was evaluated and fluorescence basal level was estimated with untreated cells. In treated wells, the increase of fluorescence with respect to basal level was measured. EC50 values were determined by fitting the fluorescence increase percentage versus log[dose]. […]

T1 sequence (P08183 whole entry): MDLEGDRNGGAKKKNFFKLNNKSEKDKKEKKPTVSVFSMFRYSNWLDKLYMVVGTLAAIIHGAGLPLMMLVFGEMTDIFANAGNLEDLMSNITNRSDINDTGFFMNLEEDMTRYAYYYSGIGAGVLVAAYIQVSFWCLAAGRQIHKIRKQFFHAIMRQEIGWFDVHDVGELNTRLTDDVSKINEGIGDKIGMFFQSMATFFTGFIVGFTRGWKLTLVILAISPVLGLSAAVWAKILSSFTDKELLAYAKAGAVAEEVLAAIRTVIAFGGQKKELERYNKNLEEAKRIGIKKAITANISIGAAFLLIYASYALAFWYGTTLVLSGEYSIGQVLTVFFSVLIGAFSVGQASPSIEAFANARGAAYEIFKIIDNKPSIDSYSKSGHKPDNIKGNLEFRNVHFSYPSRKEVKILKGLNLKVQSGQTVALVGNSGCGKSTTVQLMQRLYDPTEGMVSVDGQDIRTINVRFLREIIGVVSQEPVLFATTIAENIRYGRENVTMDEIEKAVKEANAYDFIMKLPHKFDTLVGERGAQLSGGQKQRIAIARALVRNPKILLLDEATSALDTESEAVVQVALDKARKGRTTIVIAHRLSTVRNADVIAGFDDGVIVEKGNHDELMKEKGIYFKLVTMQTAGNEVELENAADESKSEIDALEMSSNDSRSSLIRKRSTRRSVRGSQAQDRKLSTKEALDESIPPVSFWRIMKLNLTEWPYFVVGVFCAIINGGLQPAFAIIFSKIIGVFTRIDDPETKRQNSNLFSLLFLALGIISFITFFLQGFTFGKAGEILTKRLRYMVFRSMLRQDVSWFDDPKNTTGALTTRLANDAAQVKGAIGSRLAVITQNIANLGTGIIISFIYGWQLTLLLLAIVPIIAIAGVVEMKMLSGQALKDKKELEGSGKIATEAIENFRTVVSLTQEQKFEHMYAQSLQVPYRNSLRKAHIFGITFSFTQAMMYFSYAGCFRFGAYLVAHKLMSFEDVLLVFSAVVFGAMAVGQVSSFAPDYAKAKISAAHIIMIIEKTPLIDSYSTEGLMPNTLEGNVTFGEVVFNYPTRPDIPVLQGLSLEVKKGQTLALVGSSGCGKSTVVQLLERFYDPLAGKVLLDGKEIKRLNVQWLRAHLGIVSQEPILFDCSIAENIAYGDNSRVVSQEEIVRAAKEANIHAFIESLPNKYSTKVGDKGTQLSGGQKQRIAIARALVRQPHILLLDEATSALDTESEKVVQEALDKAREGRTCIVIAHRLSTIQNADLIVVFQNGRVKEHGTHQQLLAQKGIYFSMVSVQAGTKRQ

Work on `COc1cc2c(cc1OC)CN(CCc1ccc(NC(=O)c3c(OC)cccc3OC)cc1)CC2` (as salt: hydrochloride) [Compound 4, N-(4–(2-(6,7-dimethoxy-3,4-dihydroisoquinolin-2(1H)-yl)ethyl)phenyl)-2,6-dimethoxybenzamide] yielded a melting point of 212 to 214 °C.

With `COc1cncc(C(=O)Nc2ccc(CCN3CCc4cc(OC)c(OC)cc4C3)cc2)n1` [Compound 12, N-(4–(2-(6,7-dimethoxy-3,4-dihydroisoquinolin-2(1H)-yl)ethyl)phenyl)-6-methoxypyrazine-2-carboxamide] the ATP cell depletion (P-gp [1]) was “No”, the “stability in PBS” value [2] was “unmodified” and the efflux ratio at 120 min, 100 µM [3] was 6. For the same molecule, the EC50 (P-gp [4]) was 870 ± 170 nM, the “stability in human plasma” value ([5]; up to 120 min) was “stable over 120 min” and the half-life at 1 µM ([5]; human, human plasma) was at least 240 min.

Molecule `COc1cc2c(cc1OC)CN(CCc1ccc(NC(=O)c3c(OC)c(OC)cc4ccccc34)cc1)CC2` (as salt: hydrochloride) [Compound 8, N-(4–(2-(6,7-dimethoxy-3,4-dihydroisoquinolin-2(1H)-yl)ethyl)phenyl)-2,3-dimethoxy-1-naphthamide] has a melting point of 245 to 248 °C.

For `COc1cccc2c1C(=O)c1c(O)c3c(c(O)c1C2=O)C[C@@](O)(C(=O)CO)C[C@@H]3O[C@H]1C[C@H](N)[C@H](O)[C@H](C)O1` [doxorubicin, reference compound], the “cytotoxicity of doxorubicin alone” value (MDCK-MDR1 cells) was “did not show cytotoxicity”.

`COc1cc2c(cc1OC)CN(CCc1ccc(NC(=O)c3c(OC)ccc4ccccc34)cc1)CC2` (as salt: hydrochloride) [Compound 7, N-(4–(2-(6,7-dimethoxy-3,4-dihydroisoquinolin-2(1H)-yl)ethyl)phenyl)-2-methoxy-1-naphthamide] gave a melting point of 239 to 241 °C.

In the case of `COc1ccc2nccc(C(=O)Nc3ccc(CCN4CCc5cc(OC)c(OC)cc5C4)cc3)c2c1` (as salt: hydrochloride) [Compound 13, N-(4–(2-(6,7-dimethoxy-3,4-dihydroisoquinolin-2(1H)-yl)ethyl)phenyl)-6-methoxyquinoline-4-carboxamide], the melting point is reported as 228 to 230 °C.

For `COc1cc2c(cc1OC)CN(CCc1ccc(NC(=O)c3cc(OC)c(OC)cc3NC(=O)c3cnc4ccccc4c3)cc1)CC2` [tariquidar, reference compound], the ATP cell depletion (P-gp [1]) was “Yes^f”, the efflux ratio at 120 min, 100 µM [3] was over 20 and the EC50 (P-gp [4]) was 44 ± 1 nM. It also gave an EC50 (BCRP) of 10 ± 5 nM.
